Structures can show the parent of a compound that is named as a salt.
Key:
urethral pressure = experiment: Canine urethral-prostate pressure: inhibition of hypogastric nerve stimulation response in anesthetized dog; format: in vivo, male mongrel dogs
Description: (§1) A. CANINE URETHRAL-PROSTATE PRESSURE
(§2) To evaluate the ability of compounds to affect urethral-prostate pressure (contractility) while assessing their cardiovascular effects simultaneously.
Using hypogastric nerve stimulation (NS) and the .varies.-1 agonist phenylephrine (or other receptor agonists, as appropriate) the responses of urethral pressures and systemic blood pressure are recorded. The tests compounds are then given in a log dose infusion. The inhibition of the NS response within the prostate as well as the systemic phenylephrine response on blood pressure is measured to assess the uro-selectivity of the compound in the anesthetized dog. […]
(§3) 4. Rectal temperature is monitored and maintained at 37-39° C. with a heating pad. […]
3. […] The effects of either nerve stimulation (NS) or IV phenylephrine can be evaluated.
(§4) 1. After a control period of at least 30 minutes and establishment of stable baselines of urethral and blood pressure are observed, the control responses to NS or phenylephrine bolus are recorded.
2. A hypogastric nerve stimulation of 16 Hertz, 10 Volts, 10 msec pulse width and 10 sec train duration are given and changes in urethral pressures are recorded.
3. At a time point 5 minutes post NS a phenylephrine bolus (10 μg/kg) is given into the cephalic vein and changes in blood pressure are recorded. […]

diastolic blood pressure = experiment: Canine model: inhibition of phenylephrine response on diastolic blood pressure in anesthetized dog; format: in vivo, male mongrel dogs; conditions: Canis lupus familiaris, iv, dose (salt) producing 50% inhibition of agonist (phenylephrine) response on diastolic blood pressure, cumulative i.v. infusion, read-out: BP ED50
Description: as §1, §2
Using hypogastric nerve stimulation (NS) and the .varies.-1 agonist phenylephrine (or other receptor agonists, as appropriate) the responses of urethral pressures and systemic blood pressure are recorded. The tests compounds are then given in a log dose infusion. The inhibition of the NS response within the prostate as well as the systemic phenylephrine response on blood pressure is measured to assess the uro-selectivity of the compound in the anesthetized dog.
Interesting compounds are those that express uro-selectivity with a ratio of >100 for the urethral pressure vs diastolic blood pressure comparisons (BP.US). […]
as §3, §4
3. At a time point 5 minutes post NS a phenylephrine bolus (10 μg/kg) is given into the cephalic vein and changes in blood pressure are recorded. At least two NS and phenylephrine injections are performed and evaluated for their consistency, the second consistent stimulation is picked for the baseline value response. […]

male Wistar rats = experiment: Behavioural and autonomic observation after oral dosing in rats; format: in vivo; conditions: 10 mg/kg po
Description: The compound of Example 13 was administered at 10 mg/kg (po) to male Wistar rats.

[1] = Crystal form stability and hygroscopicity; format: physicochemical
Description: Compounds of the present invention can exist in more than one crystalline form. For example, crystalline forms may vary from solvate to solvate. Compounds of the present invention encompass all possible crystalline forms. In particular, for example, 5-(2-{4-[5-(4-fluorophenyl)-4-(2,2,2-trifluoroethoxymethyl)-oxazol-2-yl}-ethyl)-2-methoxybenzenesulfonamide hydrochloride exists in four known crystal forms. Form I melts around 145° C. and converts to Form III which has a melting point around 200° C.

COc1ccc(CCN2CCC(c3nc(COCC(F)(F)F)c(-c4ccc(F)cc4)o3)CC2)cc1S(N)(=O)=O [Example 12, 2-Methoxy-5-(2-{4-[5-(4-fluoro-phenyl)-4-(2,2,2-trifluoro-ethoxymethyl)-oxazol-2-yl]-piperidin-1-yl}-ethyl)-benzenesulfonamide]
ED50 (urethral pressure; Canis lupus familiaris, iv, dose (salt) producing 50% inhibition of nerve stimulation response on urethral pressure, cumulative i.v. infusion, anesthetized dog, read-out: UP ED50): 0.013 mg/kg | BP/UP (urethral pressure; ratio of the BP ED50 to the UP ED50, uro-selectivity): 550 | ED50 (diastolic blood pressure): 7.15 mg/kg

COc1ccc(CCN2CCC(c3nc(COCC(F)(F)F)c(-c4ccc(F)cc4)o3)CC2)cc1S(N)(=O)=O [Example 13, 5-(2-{4-[5-(4-fluorophenyl)-4-(2,2,2-trifluoroethoxymethyl)-oxazol-2-yl}-ethyl)-2-methoxybenzenesulfonamide hydrochloride]
animals' appearance by 24 hours after dosing (male Wistar rats; 24 hours): all animals appeared normal by 24 hours after dosing | ptosis (male Wistar rats; between 1 and 4 hours after dosing): Slight to moderate ptosis was observed | hygroscopicity ([1]; below 70% relative humidity): non-hydgroscopic | solid state and chemical stability ([1]; below 70% relative humidity): good solid state and chemical stability | conversion of crystal form ([1]; greater than 70% relative humidity): converts to form IV

COc1ccc(CCN2CCC(c3nc(COCC(F)(F)F)c(-c4ccc(F)cc4)o3)CC2)cc1S(N)(=O)=O [Form I, 5-(2-{4-[5-(4-fluorophenyl)-4-(2,2,2-trifluoroethoxymethyl)-oxazol-2-yl}-ethyl)-2-methoxybenzenesulfonamide hydrochloride]
conversion of crystal form ([1]; room temperature, aqueous media): convert to a hydrated form (Form IV)

COc1ccc(CCN2CCC(c3nc(COCC(F)(F)F)c(-c4ccc(F)cc4)o3)CC2)cc1S(N)(=O)=O [Form IV, 5-(2-{4-[5-(4-fluorophenyl)-4-(2,2,2-trifluoroethoxymethyl)-oxazol-2-yl}-ethyl)-2-methoxybenzenesulfonamide hydrochloride]
conversion of crystal form ([1]; upon separation from the aqueous media): readily converts to an anhydrous form (Form II)

Source: patent publication US6090825A, “Oxazole derivatives as antagonists of alpha 1C andrenergic receptors” (Glaxo Wellcome Inc., priority 1994, dated 2000)
